From patent publication EP3964497A1, “SUBSTITUTED VICINAL DIAMINE COMPOUNDS AND THEIR USE IN THE TREATMENT, AMELIORATION OR PREVENTION OF PAIN” (priority 2020, dated 2022)
Like-named read-outs stand apart in the source and are kept apart here.

Key:
δOR = target: T1, δOR (Homo sapiens, UniProt P41143); experiment: competitive radioligand binding with [3H]diprenorphine, membranes of transfected HEK 293T cells
T1 construct: expressed in transfected cells; host or cells: HEK 293T cells, transient transfection, membrane preparation
Description: (§1) To verify the subtype selectivity of the described compounds for µOR over δOP and κOR, respectively, the binding affinities of the described examples to the different human opioid receptors in an in-vitro test system were measured.
(§2) For the determination of receptor binding affinity competitive radioligand binding experiments were performed as described in literature (H. Huebner, C. Haubmann, W. Utz, P. Gmeiner, J. Med. Chem., 2000, 43, 756-762). In brief, HEK 293T cells were transiently transfected with the cDNAs coding for the human opioid receptor subtypes µOR, δOR, and kOR, respectively, using a solution of polyethylenimine in PBS (PEI, linear, 25 kDa, Polysciences) as transfection reagent at a 3:1 PEI to cDNA ratio (I. Fish, A. Stoessel, K. Eitel, C. Valant, S. Albold, H. Huebner, D. Moeller, M.J. Clark, R.K. Sunahara, A. Christopoulos, B.K. Shoichet, P. Gmeiner, J. Med. Chem., 2017, 60, 9239-9250). After preparation of membranes, radioligand displacement assays were run in 96-well format at a final volume of 200 µL in binding buffer (50 mM Tris-HCI, 1 mM EDTA, 5 mM MgCl2, 100 µg/mL bacitracin, 5 µg/mL soybean trypsin inhibitor, pH 7.4) with the radioligand [^3H]diprenorphine (specific activity = 31 Ci/mmol) at a final concentration of 0.20-0.30 nM. […] Unspecific binding was determined in the presence of 10 µM of the naloxone. Protein concentrations were determined employing the method of Lowry with bovine serum albumin as standard (O.H. Lowry, N.J. Rosebrough, A.L. Farr, R.J. Randall, J. Biol. Chem., 1951, 193, 265-275). The resulting competition curves of the receptor binding experiments were analyzed by nonlinear regression. The data were initially fit using a sigmoid model to provide IC50 values, which were subsequently transformed to Ki values according to the equation of Cheng and Prusoff (Y.-C. Cheng, W. H. Prusoff, Biochem. Pharmacol., 1973, 22, 3099-3108). Three to seven experiments per compound were performed, with each concentration in triplicate.

κOR = target: T2, κOR (Homo sapiens, UniProt P41145); experiment: as above
T2 construct: expressed in transfected cells; host or cells: HEK 293T cells, transient transfection, membrane preparation
Description: as §1
After preparation of membranes, radioligand displacement assays were run in 96-well format at a final volume of 200 µL in binding buffer (50 mM Tris-HCI, 1 mM EDTA, 5 mM MgCl2, 100 µg/mL bacitracin, 5 µg/mL soybean trypsin inhibitor, pH 7.4) with the radioligand [^3H]diprenorphine (specific activity = 31 Ci/mmol) at a final concentration of 0.20-0.30 nM. […] Unspecific binding was determined in the presence of 10 µM of the naloxone. […] The resulting competition curves of the receptor binding experiments were analyzed by nonlinear regression. […] Three to seven experiments per compound were performed, with each concentration in triplicate.

µOR [1] = target: T3, µOR (Homo sapiens, UniProt P35372); experiment: G-protein mediated signaling, IP1 accumulation assay (HTRF) in HEK-293T cells with hybrid G-protein Gαqi; format: cell-based; design: expressed in transfected cells; host or cells: HEK-293T cells, transient transfection; conditions: for Emax: HEK-293T, read-out: G-protein signaling Emax; for G-protein signaling EC50: mean of 3-9 experiments, 180 min at 37 °C, CBA = could not be analyzed (no dose-response curve)
Description: (§3) Functionally selective drugs, which are biased towards Gi protein activation over β-arrestin signaling at the µOR are indicated to show an improved side effect profile. Thus, the characterization of the functional properties of the described examples at the µOR were performed by determination of the ligand stimulated G-protein related signaling and β-arrestin recruitment applying cell based in-vitro test systems. Full and partial agonists as well as antagonists for G protein related signaling were identified.
The determination of G-protein stimulated µOR activation was measured applying an IP1 accumulation assay as described previously (J. Kruell, S.K. Fehler, L. Hofmann, N. Nebel, S. Maschauer, O. Prante, P. Gmeiner, H. Lanig, H. Huebner, M.R. Heinrich. ChemMedChem 2020, 15, 1175-1186. C. Gentzsch, K. Seier, A. Drakopoulos, M.-L. Jobin, Y. Lanoiselee, Z. Koszegi, D. Maurel, R. Sounier, H. Huebner, P. Gmeiner, S. Granier, D. Calebiro, M. Decker. Ang. Chem. Int. Ed. 2020, 59, 2-9). In brief, HEK-293T cells were grown to confluence of approximately 70% and transiently transfected with the cDNA of the human µOR receptor and the hybrid G-protein Gαqi. After one day cells were seeded into 384-well microplates. For testing cells were incubated with test compounds (final range of concentration from 1 pM up to 10 µM) for 180 min at 37 °C followed by addition of detection reagents. Time resolved fluorescence resonance energy transfer (HTRF) was determined using a microplate reader. Each compound was tested in duplicates in 3-9 individual experiments in comparison to the reference compound DAMGO. The resulting dose response curves were analyzed by nonlinear regression using the algorithms in PRISM 6.0 (GraphPad software, San Diego, CA), fitted with a sigmoid model and normalized to basal activity (0 %) and the maximal effect caused by the reference full agonist DAMGO (100 %).
(§4) In the above table, the numbers indicate mean EC50 values in nM and Emax values relative to the full effect of reference agonist DAMGO [=100%], respectively and are derived from 3-9 individual experiments for G-protein signaling and 3-8 tests for arrestin recruitment. ND = not determined.

µOR [2] = target: T3, µOR; experiment: competitive radioligand binding with [3H]diprenorphine, membranes of transfected HEK 293T cells; design: expressed in transfected cells; host or cells: HEK 293T cells, transient transfection, membrane preparation
Description: as §1, §2

µOR [3] = target: T3, µOR; experiment: β-arrestin-2 recruitment, enzyme-fragment complementation assay in HEK-293 cells; format: cell-based; design: expressed in transfected cells; host or cells: HEK-293 cells stably expressing EA-tagged β-arrestin-2, transiently transfected with µOR-PK1; conditions: for Emax: HEK293, relative to the full effect of reference agonist DAMGO [=100%]; for β-arrestin recruitment EC50: mean of 3-8 tests, 90 min incubation, CBA = could not be analyzed (no dose-response curve)
Description: as §3
Measurement of β-arrestin-2 recruitment was done applying an enzyme-fragment complementation assay as described previously (C. Gentzsch, K. Seier, A. Drakopoulos, M.-L. Jobin, Y. Lanoiselee, Z. Koszegi, D. Maurel, R. Sounier, H. Huebner, P. Gmeiner, S. Granier, D. Calebiro, M. Decker. Ang. Chem. Int. Ed. 2020, 59, 2-9. J. Hellmann, M. Drabek, J. Yin, J. Gunera, T. Proell, F. Kraus, C.J. Langmead, H. Huebner, D. Weikert, P. Kolb, D.M. Rosenbaum, P. Gmeiner. PNAS 2020, 117, 18059-18067). In brief, HEK-293 cells stably expressing the enzyme acceptor (EA) tagged β-arrestin-2 fusion protein were transiently co-transfected with the ProLink tagged µOR-PK1 After 24 h cells were transferred into 384-well microplates and cultured for further 24 h. To start arrestin recruitment compounds were added to the cells to get a final concentration in a range of 10 pM to 100 µM. After incubation for 90 min reaction was stopped by addition of detection mix. Chemiluminescence was determined in duplicates (3-8 individual experiments for each compound in comparison to the reference agonist DAMGO). Data analysis was done as described above.
as §4

[4] = radioligand [3H]diprenorphine, number in brackets = number of experiments, read-out: mean Ki value κOR
[5] = radioligand [3H]diprenorphine, number in brackets = number of experiments, read-out: mean Ki value δOR

| Structure (SMILES) | Ki (δOR) | Ki (κOR; [4]) | EC50 (µOR [1]) | Emax (µOR [1]) | Ki (µOR [2]) | Emax (µOR [3]) | β-arrestin recruitment EC50 (µOR [3]) | Ki (κOR) | G-protein signaling EC50 (µOR [1]) | Ki (δOR; [5]) |
| --- | --- | --- | --- | --- | --- | --- | --- | --- | --- | --- |
| C/C(=C\c1ccccc1)C(=O)NC[C@H](Cc1ccc(O)cc1)N(C)C [Example 4, (S,E)-N-(2-(Dimethylamino)-3-(4-hydroxyphenyl)propyl)-2-methyl-3-phenylacrylamide] | 49 nM | 110 nM | 17 nM | 62% | 46 nM | < 5% | CBA | – | – | – |
| CN(C)[C@H](CNC(=O)/C=C/c1ccc(F)c(C(F)(F)F)c1)Cc1ccc(O)cc1 [Example 16, (S,E)-N-(2-(Dimethylamino)-3-(4-hydroxyphenyl)propyl)-3-(4-fluoro-3-(trifluoromethyl)phenyl)acrylamide formiate] | 250 nM | – | 40 nM | 102% | 23 nM | – | – | 600 nM | – | – |
| Cc1cc(O)cc(C)c1C[C@H](N)CNC(=O)/C=C/c1cccc(C(F)(F)F)c1 [Example 11, (S,E)-N-(2-Amino-3-(4-hydroxy-2,6-dimethylphenyl)propyl)-3-(3-(trifluoromethyl)phenyl)acrylamide formiate] | 360 nM | – | – | < 5% | 19 nM | – | – | 220 nM | CBA | – |
| C/C(=C\C(=O)NC[C@H](Cc1ccc(O)cc1)N(C)C)c1ccccc1 [Example 3, (S,E)-N-(2-(Dimethylamino)-3-(4-hydroxyphenyl)propyl)-3-phenylbut-2-enamide] | – | 120 nM | 11 nM | 76% | 28 nM | < 5% | CBA | – | – | 120 nM |
| CN(C)[C@H](CNC(=O)C#Cc1ccccc1)Cc1ccc(O)cc1 [Example 2, (S)-N-(2-(Dimethylamino)-3-(4-hydroxyphenyl)propyl)-3-phenylpropiolamide] | – | 230 nM | 22 nM | 42% | 18 nM | < 5% | CBA | – | – | 140 nM |
| CN(C)[C@H](CNC(=O)/C=C/c1cccc(C(F)(F)F)c1)Cc1ccc(O)cc1 [Example 8, (S,E)-N-(2-(Dimethylamino)-3-(4-hydroxyphenyl)propyl)-3-(3-(trifluoromethyl)phenyl)acrylamide formiate] | 120 nM | – | 15 nM | 100% | 30 nM | < 5% | CBA | 580 nM | – | – |
| CN(C)[C@H](CNC(=O)/N=N/c1ccccc1)Cc1ccc(O)cc1 [Comparative Example 3, (S,E)-N-(2-(Dimethylamino)-3-(4-hydroxyphenyl)propyl)-2-phenyldiazene-1-carboxamide formiate, reference compound] | 630 nM | – | – | – | 66 nM | – | – | 540 nM | – | – |
| CN(C)[C@](C)(CNC(=O)C=Cc1ccccc1)Cc1ccc(O)cc1 (stereo in doubt) [Example 5, (S)-N-(2-(Dimethylamino)-3-(4-hydroxyphenyl)-2-methylpropyl)cinnamamide] | 1300 nM | – | – | – | 310 nM | – | – | 970 nM | – | – |
| CN(C)[C@H](COC(=O)NCCc1ccsc1)Cc1ccc(O)cc1 [Comparative Example 1, (S)-2-(Dimethylamino)-3-(4-hydroxyphenyl)propyl (2-(thiophen-3-yl)ethyl)carbamate formiate, reference compound] | 3000 nM | – | – | – | 2400 nM | – | – | 3300 nM | – | – |
| CN[C@H](CNC(=O)/C=C/c1cccc(C(F)(F)F)c1)Cc1c(C)cc(O)cc1C [Example 12, (S,E)-N-(3-(4-Hydroxy-2,6-dimethylphenyl)-2-(methylamino)propyl)-3-(3-(trifluoromethyl)phenyl)acrylamide formiate] | 310 nM | – | – | < 5% | 12 nM | – | – | 310 nM | CBA | – |
| CN(C)[C@H](COC(=O)C=Cc1ccccc1)Cc1ccc(O)cc1 (stereo in doubt) [Comparative Example 2, (S)-2-(Dimethylamino)-3-(4-hydroxyphenyl)propyl cinnamate, reference compound] | 860 nM | – | – | – | 230 nM | – | – | 320 nM | – | – |
| Cc1cccc(/C=C/C(=O)NC[C@H](Cc2ccc(O)cc2)N(C)C)c1 [Example 13, (S,E)-N-(2-(Dimethylamino)-3-(4-hydroxyphenyl)propyl)-3-(m-tolyl)acrylamide] | – | 500 nM | 41 nM | 78% | 26 nM | – | – | – | – | 300 nM |
| CN(C)[C@H](CNC(=O)/C=C/c1cccc2ccccc12)Cc1ccc(O)cc1 [Example 6, (S,E)-N-(2-(Dimethylamino)-3-(4-hydroxyphenyl)propyl)-3-(naphthalen-1-yl)acrylamide] | – | – | 20 nM | – | – | < 5% | CBA | 180 nM | – | – |
